One molecule from patent US7399638B2, “Prediction method for lipidosis” (Takeda Pharmaceutical Company Limited, priority 2003, dated 2008) can be followed below.

One data set relates to Crj: CD(SD)IGS rats. As to conditions: rat, in vivo. As for the experimental part:
The following 10 kinds of commercially available drugs were examined as the test compounds for a potential of inducing PLsis by histopathological examination and peripheral blood lymphocyte testing.
The following experiments were performed using the prematurely autopsied animals.
The high-dose dosing suspension was diluted about 3 fold and 10 fold with dispersant/solvent to prepare intermediate- and low-dose dosing suspensions. […] [For LD50, the Summary Basis of Approval (FDA) for each drug was referenced to.]
The animals were examined for mortality, general conditions, body weight, food consumption and the like using PM4800 (Mettler) and EB3200D (Shimadzu Corporation).

A further data set relates to male cynomolgus monkeys. Particulars: cynomolgus monkey, in vivo. The procedure:
Amiodarone and perhexiline were purchased from SIGMA Company.
Subsequently, the animals were allocated to four groups (5 animals in total) comprising 2 animals in the control group and 1 male in each treatment group, respectively.
The high-dose dosing suspension was diluted with the dispersant/solvent to prepare a low-dose dosing suspension.
After completion of the administration, livers, kidneys, hearts, spleens, lungs, mesenteric lymph nodes, eyeballs, testes and brains were collected from all animals, and examined for histopathological changes by conventional method of optical microscopy. Additionally, blood samples were collected in the pre-dosing period, on the first day of administration, and on days 2 and 6 of treatment period, blood smear specimens were prepared, and vacuolated lymphocyte ratios were determined.

Read-outs that look alike come from different tables or passages of the source.

Consider `CCCCc1oc2ccccc2c1C(=O)c1cc(I)c(OCCN(CC)CC)c(I)c1` [Amiodarone], for which, in the data set with Crj: CD(SD)IGS rats (100 mg/kg/day), the “Histopathological changes (PLsis): Liver” value is listed as “−”, the “Histopathological changes (PLsis): Lung” value is “−”, the “Histopathological changes (PLsis): Lymph node” value was “−” and the “Histopathological changes (PLsis): Others” value was “−”. The “Histopathological changes (PLsis): Spleen” value in the data set with Crj: CD(SD)IGS rats (100 mg/kg/day) is given as “−”. Also, in the data set with Crj: CD(SD)IGS rats (300 mg/kg/day), the “Histopathological changes (PLsis): Liver” value is reported as “−”, the “Histopathological changes (PLsis): Lung” value is listed as “+”, the “Histopathological changes (PLsis): Lymph node” value is on record as “+” and the “Histopathological changes (PLsis): Others” value was “−”. Further, in the data set with Crj: CD(SD)IGS rats (300 mg/kg/day), the “Histopathological changes (PLsis): Spleen” value is on record as “−”. In addition, in the data set with Crj: CD(SD)IGS rats (1000 mg/kg/day), the “Histopathological changes (PLsis): Liver” value is reported as “−”, the “Histopathological changes (PLsis): Lung” value was “+”, the “Histopathological changes (PLsis): Lymph node” value is listed as “+” and the “Histopathological changes (PLsis): Others” value is “−”. For the same molecule, in the data set on Crj: CD(SD)IGS rats (1000 mg/kg/day), the “Histopathological changes (PLsis): Spleen” value is recorded as “+”. For the same molecule, the “induction of PLsis/steatosis” value in the data set with male cynomolgus monkeys (60 mg/kg) is “not observed”. In addition, the “histopathological changes in any target organ” value in the data set on male cynomolgus monkeys (300 mg/kg) is recorded as “observed”.
